Source: the NIST ThermoML archive (doi:10.1021/je401120a)

Assay: refractive index (Na D-line) (dimensionless); xn = mol fraction of the nth substance listed
Settings: 101 kPa, Liquid, Standard Abbe refractometry

CCC[n+]1ccccc1.F[B-](F)(F)F [1-propylpyridinium tetrafluoroborate] + CO
refractive index
Settings | 293.15 K | 303.15 K | 313.15 K | 323.15 K
x1 = 0.0279 | 1.34377 | 1.3399 | 1.3361 | 1.33304
x1 = 0.0576 | 1.35657 | 1.35319 | 1.34994 | 1.34753
x1 = 0.0965 | 1.36988 | 1.36693 | 1.36409 | 1.36215
x1 = 0.1457 | 1.38283 | 1.38006 | 1.37759 | 1.37597
x1 = 0.1949 | 1.39301 | 1.3903 | 1.38806 | 1.38633
x1 = 0.2548 | 1.4028 | 1.40001 | 1.39755 | 1.39577
x1 = 0.3209 | 1.41121 | 1.40839 | 1.40578 | 1.40373
x1 = 0.3998 | 1.4189 | 1.41592 | 1.41304 | 1.41094
x1 = 0.496 | 1.42595 | 1.42315 | 1.42027 | 1.4177
x1 = 0.5983 | 1.43176 | 1.4289 | 1.42609 | 1.42341
x1 = 0.6901 | 1.43601 | 1.43321 | 1.43034 | 1.42772
x1 = 0.8007 | 1.44014 | 1.43738 | 1.43461 | 1.43193
x1 = 0.8821 | 1.44265 | 1.43997 | 1.43737 | 1.43464
x1 = 1 | 1.44588 | 1.44322 | 1.44057 | 1.43792
